Consider 3 compounds from patent US4666934A, “Prostaglandin analogs” (The Upjohn Company, priority 1985, dated 1987).

Holding throughout (assay type): physicochemical
One series is described as follows: Solid-state stability. Particulars: for Solid state stability (degradation): 2 months at 33° C., 87600 min; for Solid-state stability (visual observation): 75% R.H., 30°, same = as at day 0. As to the method: (§1) The solid-state stability studies were performed as follows. Approximately 10-15 mg of the free acid or a salt was placed in either clear glass vials or amber vials wrapped in aluminum foil and stored under various conditions as listed below:
(a) Refrigerated at about 4° C. (dark).
(b) High Intensity Light Box at about 33° C. and relative humidity <15%. (Light Box contained 6-15 watt fluorescent bulbs 41/2 inches above the powder surface.) Sample vials were placed on their sides with powder spread evenly on the vial wall.
(c) 30° C./75% relative humidity/dark-vials were capped loosely.
(§2) At various times, 1-1.5 mg samples were dissolved in methanol, diluted to a prescribed volume with water, and analyzed by high pressure liquid chromatography versus reference standard of the free acid stored at -20° C. Chromatographic conditions were similar to those described previously.

The nature of series [1]: Stability suspended in trichlorotrifluoroethane. As to conditions: dark, 30°. On the procedure:
as §1
(d) Suspended in […] and shaken continuously for 26 days.
as §2

Series [2] is described as follows: Trichlorotrifluoroethane solubility. On the procedure: The solubility of the compounds in trichlorotrifluoroethane, a high molecular weight fluorochlorinated alkane liquid propellant, was determined as follows. Suspensions of each compound were prepared at concentrations of ~1 mg/ml in trichlorotrifluoroethane in 30 ml glass vials sealed using polytetrafluoroethylene lined caps. These vials were wrapped with aluminum foil and shaken at ~25° C. After 26 days shaking the samples were filtered. Three successive 5 ml fractions were collected from the filter and analyzed to test for adsorption. (No adsorption was observed.)
The 5 ml samples were transferred to 5 ml volumetric flasks and solvent was evaporated under nitrogen. The residue was redissolved in 1 ml methanol and diluted to 5 ml with 30% CH3 CN. Samples were assayed by high pressure liquid chromatography.

The nature of series [3]: Characterizability (passes profile; moisture content after air equilibration). As to conditions: for Characterizability (passes profile): Table I.
A further series is described as follows: Water solubility. As to conditions: for Water solubility: in words.
A short description of series [4]: Specific gravity (volume displacement, pycnometer). As to conditions: 20° C., acetonitrile. On the procedure: To obtain specific gravity data approximate densities were obtained using a volume displacement procedure. To a 5 ml weighed pycnometer was added 200-300 mg of salt and acetonitrile added to fill. The salt suspensions were sonicated to remove entrapped air and equilibrated to 20° C. in a water bath. The salt densities were estimated by standard methods of calculation.

In brackets after ≈: the same amount, converted by molar mass. Structures can show the parent of a compound that is named as a salt.

For `CCCCC[C@H](O)/C=C/[C@@H]1c2cc(CCCCC(=O)O)n(-c3ccccc3)c2C[C@H]1O` [Free Acid, 6,9-deepoxy-6,9-(phenylimino)-Δ6,8-prostaglandin I1, reference compound], the “Solid state stability (degradation)” value in “Solid-state stability” is given as greater than 10%. Moreover, the Solid-state stability in the series “Solid-state stability” (Dark, 33°, 0 days) is on record as 100% of Theory; in the series “Solid-state stability” (Dark, 33°, 19 days, 27360 min), 98% of Theory; in the series “Solid-state stability” (Dark, 33°, 189 days, 272160 min), 65% of Theory; in the series “Solid-state stability” (Dark, 33°, 289 days, 416160 min), 46% of Theory; in “Solid-state stability” (Dark, 33°, 405 days, 583200 min) it was 19% of Theory; in the series “Solid-state stability” (High intensity light, 33°, relative humidity <15%, 0 days) it was 100% of Theory. Moreover, in the series “Solid-state stability” (High intensity light, 33°, relative humidity <15%, 19 days, 27360 min), the Solid-state stability is listed as 55% of Theory. The “Solid-state stability (visual observation)” value in the series “Solid-state stability” (Dark, 19 days) was “same”. Besides, the remaining at 960 h in “Solid-state stability” (solid state, Dark, 33°, 40 days) came to 94%. Besides, in the series “Solid-state stability” (solid state, Dark, 33°, 66 days), the remaining at 1584 h is 89%. For the same compound, in series [1] (0 days), the “Stability in trichlorotrifluoroethane suspension” value was 100% of Theory. Besides, the remaining at 624 h in series [1] (trichlorotrifluoroethane, 26 days, read-out: Stability in trichlorotrifluoroethane suspension) came to 94%. Further, the solubility (as a rule, how much of the substance goes into solution per volume) at 624 h in series [2] (trichlorotrifluoroethane, organic solvent or mixture, ~25° C., 26 days shaking) is 0.38 µg/mL (≈ 0.893 µM). In series [3], the “Characterizability (passes profile)” value is given as “Pass”. The solubility in “Water solubility” (water, Table I, numeric) was found to be 1 µg/mL (≈ 2.35 µM).

For the compound `CCCCC[C@H](O)/C=C/[C@@H]1c2cc(CCCCC(=O)O)n(-c3ccccc3)c2C[C@H]1O` [Potassium Salt, 6,9-Deepoxy-6,9-(phenylimino)-Δ6,8-prostaglandin I1, potassium salt], the “Solid state stability (degradation)” value in “Solid-state stability” (potassium salt) is less than 2%. Further, the Solid-state stability was 100% of Theory in the series “Solid-state stability” (Dark, 4°, 0 days, potassium salt); 100% of Theory in “Solid-state stability” (Dark, 33°, 0 days, potassium salt); 100% of Theory in “Solid-state stability” (Dark, 33°, 19 days, potassium salt, 27360 min); 100% of Theory in “Solid-state stability” (Dark, 33°, 40 days, potassium salt, 57600 min); 100% of Theory in the series “Solid-state stability” (Dark, 33°, 66 days, potassium salt, 95040 min); 96% of Theory in “Solid-state stability” (Dark, 33°, 289 days, potassium salt, 416160 min). The Solid-state stability in the series “Solid-state stability” (Dark, 33°, 405 days, potassium salt, 583200 min) was 96% of Theory; in the series “Solid-state stability” (High intensity light, 33°, relative humidity <15%, 0 days, potassium salt) it was 100% of Theory; in the series “Solid-state stability” (High intensity light, 33°, relative humidity <15%, 19 days, potassium salt, 27360 min), 48% of Theory; in “Solid-state stability” (in words, over the free acid or the sodium salt) it was “improved solid-state stability over the free acid or the sodium salt”. In the series “Solid-state stability” (Dark, 19 days, potassium salt), the “Solid-state stability (visual observation)” value was “glass”. Also, in the series “Solid-state stability” (protected from light, 33°), the “Rank order of stability” value is “potassium salt>free acid>sodium salt”. In “Solid-state stability” (solid state, Dark, 4°, 66 days), the remaining at 1584 h was determined as 102%. The remaining at 4536 h in “Solid-state stability” (solid state, Dark, 4°, 189 days) came out at 101%. Also, in the series “Solid-state stability” (solid state, Dark, 33°, 100 days), the remaining at 2400 h came out at 97%. For the same compound, in “Solid-state stability” (solid state, Dark, 33°, 216 days), the remaining at 5184 h worked out at 98%. Further, the “Stability in trichlorotrifluoroethane suspension” value in series [1] (26 days, potassium salt, 37440 min) is given as 100% of Theory. In addition, the “Solubility in fluorinated and fluorochlorinated liquified propellants” value in series [2] (as compared to the free acid, in words) is “low solubility in fluorinated and fluorochlorinated liquified propellants”. In series [2] (~25° C., 26 days shaking, potassium salt, 37440 min), the Trichlorotrifluoroethane solubility amounted to 0.43 µg/mL. Also, in series [4] (potassium salt), the Specific gravity stood at 1.20. In addition, the “Characterizability (passes profile)” value in series [3] (potassium salt) was “Pass”. Also, the “moisture content after air equilibration” value in series [3] (potassium salt) was “.42 % H2O”. Also, the Water solubility result in “Water solubility” (listed as potassium salt, potassium salt) was “high water solubility”; in “Water solubility” (potassium salt), “Soluble”.

For `CCCCC[C@H](O)/C=C/[C@@H]1c2cc(CCCCC(=O)O)n(-c3ccccc3)c2C[C@H]1O` [Sodium Salt, 6,9-Deepoxy-6,9-(phenylimino)-Δ6,8-prostaglandin I1, sodium salt], the “Solid state stability (degradation)” value in “Solid-state stability” (sodium salt) is on record as greater than 50%. Further, the Solid-state stability is reported as 101% of Theory in “Solid-state stability” (Dark, 4°, 0 days, sodium salt); 101% of Theory in “Solid-state stability” (Dark, 33°, 0 days, sodium salt); 61% of Theory in “Solid-state stability” (Dark, 33°, 19 days, sodium salt, 27360 min); 101% of Theory in “Solid-state stability” (High intensity light, 33°, relative humidity <15%, 0 days, sodium salt); 3% of Theory in “Solid-state stability” (High intensity light, 33°, relative humidity <15%, 19 days, sodium salt, 27360 min). Besides, the “Solid-state stability (visual observation)” value in the series “Solid-state stability” (Dark, 19 days, sodium salt) is on record as “same”. In addition, the remaining at 456 h in the series “Solid-state stability” (solid state, Dark, 4°, 19 days) was found to be 87%. The remaining at 1104 h in the series “Solid-state stability” (solid state, Dark, 4°, 46 days) came to 77%. Besides, the Specific gravity in series [4] (sodium salt) came out at 1.18. The “Characterizability (passes profile)” value in series [3] (sodium salt) is reported as “Initial analysis acceptable but later assays (HPLC) unacceptable”. Also, the “moisture content after air equilibration” value in series [3] (sodium salt) is recorded as “.82 % H2O”. Further, the Water solubility entry in the series “Water solubility” (sodium salt) is listed as “Soluble”.
